Like-named read-outs stand apart in the source and are kept apart here. Bridge positions count the residues as written; N and C are the ends. Square brackets hold non-standard residues; d marks the D form. Peptide text beside a SMILES is read from it. * marks the point of attachment. X3 = O=C(c1ccnc(-c2cccc(Cl)c2)c1)*; X32 = N#Cc1cc(C(=O)*)ccc1-c1ccccc1; X35 = N#Cc1ccc(C(=O)*)cc1-c1ccccc1; 2Naphthoyl = O=C(c1ccc2ccccc2c1)*; X31 = O=C(c1ccnc(-c2ccccc2Cl)c1)*; X5 = O=C(c1ccnc(-c2cccc(F)c2)c1)*; X7 = O=C(c1ccnc(-c2ccccc2F)c1)*; Dab = NCC[C@H](N)C(=O)O; Dap = NC[C@H](N)C(=O)O
Columns and labels:
[1] = tested on: AB-3167, clinical isolate of Acinetobacter baumannii; assay type: cell-based
Procedure: (§1) Minimum bactericidal concentration (MBC, mg/L), minimum inhibitory concentration (MIC, mg/L), and human renal proximal tubule epithelial cell line cytotoxicity concentration 50% (hRPTEC, TC50, micromolar) for compounds of Formula I are listed in Table 2. The compounds of Formula I were tested as the corresponding trifluoroacetate salt except for Example 1 which was tested as the sulfate salt. For Table 2 below: PMB=polymyxin B as the sulfate salt (Bedford Laboratories, pharmaceutical grade); PMB1=polymyxin B1 as the trifluoroacetate salt; Nona=polymyxin B nonapeptide as the trifluoroacetate salt. PMB1 and Nona were prepared using the solid phase methodology described in the experimental section herein.
(§2) The in vitro antibacterial activity of compounds of Formula I was evaluated by MIC testing according to Clinical and Laboratory Standards Institute (CLSI). See: Clinical and Laboratory Standards Institute. Methods for Dilution Antimicrobial Susceptibility Tests for Bacteria that Grow Aerobically; Approved Standard-Eighth Edition. CLSI document M7-A8 [ISBN 1-56238-689-1]. Clinical and Laboratory Standards Institute, 940 West Valley Road, Suite 1400, Wayne, Pa. 19087-1898 USA, 2006; also Clinical and Laboratory Standards Institute. Performance Standards for Antimicrobial Susceptibility Testing; Twentieth Informational Supplement. CLSI document M100-S20 [ISBN 1-56238-716-2]. Clinical and Laboratory Standards Institute. Methods for Determining Bactericidal Activity of Antimicrobial Agents; Approved Guideline. CLSI document M26-A (ISBN 1-56238-384-1). CLSI, 940 West Valley Road, Suite 1400, Wayne, Pa. 19087-1898 USA, 1999.
(§3) The MIC determination is a standard laboratory method for evaluating the antibacterial activity of a compound. The MIC represents the lowest drug concentration that inhibits visible growth of bacteria following overnight incubation. […] Typically, the drug concentration range is broken down into 2-fold increments (e.g. 0.06 mg/L, 0.12 mg/L, 0.25 mg/L, 0.50 mg/L, 1.0 mg/L, etc.) and the various drug concentrations are all individually incubated overnight with approximately the same number of bacteria. The MIC is then determined by visually inspecting the drug effect at each concentration, and identifying the lowest drug concentration that has inhibited bacterial growth as compared to the drug free control. Typically, bacteria continue to grow at drug concentrations lower than the MIC and don't grow at concentrations at and above the MIC.
(§4) The MIC values described in Table 2 below were derived from assays wherein each test compound was evaluated in duplicate. In cases where the duplicate values varied by 0-2-fold, the lower of the two values was reported below. Generally speaking, if the duplicate values varied by more than 2-fold, the assay was considered non-valid and was repeated until the variation between duplicate runs was ≦2-fold. In line with the CLSI guidelines referred to above, both control organisms and reference compounds were utilized in each MIC assay to provide proper quality control. MIC values generated with these control organisms and reference compounds were required to fall within a defined range for the assay to be considered valid and be included herein. Those skilled in the art will recognize that MIC values can and do vary from experiment to experiment. Generally speaking, it should be recognized that MIC values often vary +/−2-fold from experiment to experiment. While a single MIC is reported for each compound and each microorganism, the reader should not conclude that each compound was only tested once. Several of the compounds were subjected to multiple tests. The data reported in Table 2 is reflective of the compounds relative activity and different MICs may have been generated on these occasions in line with the guidelines described above.
(§5) The following bacterial strains were used in these MIC determinations: […]

[2] = tested on: Pseudomonas aeruginosa strain PA01; assay type: cell-based; settings: strain
Procedure: as §1, §2, §3, §4, §5

[3] = tested on: AB-1649, polymyxin-resistant clinical isolate of Acinetobacter baumannii; assay type: cell-based; settings: AB-1649, polymyxin-resistant clinical isolate of
Procedure: as §1, §2, §3, §4, §5

[4] = tested on: PA-1646, polymyxin-resistant clinical isolate of Pseudomonas aeruginosa; assay type: cell-based; settings: PA-1646, polymyxin-resistant clinical isolate of
Procedure: as §1, §2, §3, §4, §5

[5] = tested on: PA-1646, polymyxin-resistant clinical isolate of Pseudomonas aeruginosa; assay type: cell-based; settings: PA-1646, polymyxin-resistant clinical isolate of; remark: listed apart in the source
Procedure: as §1, §2
PA-1646 is a polymyxin-resistant clinical isolate of Pseudomonas aeruginosa obtained from JMI labs (www.jmilabs.com);

[6] = Cytotoxicity assay (LDH release), hRPTEC; assay type: cell-based, human; settings: human
Procedure: as §1
Human Renal Proximal Tubule Epithelial cells (hRPTEC) were obtained from Lonza (Walkersville, Md., USA) and cultured in REGM (Renal Epithelial Cell Basal Medium supplemented with human epithelial growth factor, hydrocortisone, epinephrine, insulin, triiodothyronine, transferrin, gentamycin/amphotericin-B, and fetal bovine serum). The hRPTEC cells were seeded into 96-well plates and incubated at 37° C. in 5% CO2. Following a growth period of 72 hours, cells were treated with compounds at 100, 67, 44, 30, 20 and 13 micromolar for 24 hours at 37° C. in 5% CO2. The cell supernatant was then harvested for determination of LDH (lactate dehydrogenase) production. The Cytotoxicity Detection Kit from Roche was used for the measurement of LDH activity released from damaged cells. The Toxic Concentration 50% (TC50, micromolar) values were determined for each compound and compared to the control compounds (polymyxin B was used as a positive control and polymyxin B nonapepetide was used as negative control).

[7] = tested on: AB-1649, polymyxin-resistant clinical isolate of Acinetobacter baumannii; assay type: cell-based; settings: AB-1649, polymyxin-resistant clinical isolate of; remark: listed apart in the source
Procedure: as §1, §2
AB-1649 is a polymyxin-resistant clinical isolate of Acinetobacter baumannii obtained from JMI labs (www.jmilabs.com);

[8] = tested on: EC-1, mouse virulent strain of Escherichia coli; assay type: cell-based; settings: E. coli EC-1; overnight incubation, lower of duplicate values; trifluoroacetate salt (Example 1 and PMB sulfate)
Procedure: as §1, §2, §3, §4
The following bacterial strains were used in these MIC determinations:
EC-1 is a mouse virulent strain of Escherichia coli.

SMILES | AB-3167 MIC ([1]; AB-3167, clinical isolate of) [µg/mL] | PA01 MIC [2] [µg/mL] | AB-1649 MIC [3] [µg/mL] | PA-1646 MIC [4] [µg/mL] | PA-1646 MBC [5] [µg/mL] | CC50 at 24 h [6] [µM] | AB-1649 MBC [7] [µg/mL] | EC-1 MIC [8] [µg/mL] | AB-3167 MIC ([1]; A. baumannii AB-3167, overnight incubation, lower of duplicate values, trifluoroacetate salt (Example 1 and PMB sulfate)) [µg/mL]
CC(C)C[C@@H]1NC(=O)[C@@H](Cc2ccccc2)NC(=O)[C@H](CCN)NC(=O)[C@@H](NC(=O)[C@H](CN)NC(=O)[C@@H](NC(=O)[C@H](CCN)NC(=O)c2ccc(C#N)c(-c3ccccc3)c2)[C@@H](C)O)CCNC(=O)[C@H]([C@@H](C)O)NC(=O)[C@H](CCN)NC(=O)[C@H](CCN)NC1=O [Example 2] (X35-[Dab]T[Dap][Dab][Dab][dF]L[Dab][Dab]T; lactam 4-C) | 0.25 | 0.25 | 0.5 | 2 | 4 | 39 | 0.5 | 0.125 | 
CC(C)C[C@@H]1NC(=O)[C@@H](Cc2ccccc2)NC(=O)[C@H](CCN)NC(=O)[C@@H](NC(=O)[C@H](CN)NC(=O)[C@@H](NC(=O)[C@H](CCN)NC(=O)c2ccnc(-c3cccc(Cl)c3)c2)[C@@H](C)O)CCNC(=O)[C@H]([C@@H](C)O)NC(=O)[C@H](CCN)NC(=O)[C@H](CCN)NC1=O [Example 3] (X3-[Dab]T[Dap][Dab][Dab][dF]L[Dab][Dab]T; lactam 4-C) | 0.25 | 0.5 | 0.5 | 1 | 1 | 34 | 0.5 | 0.125 | 
CC(C)C[C@@H]1NC(=O)[C@@H](Cc2ccccc2)NC(=O)[C@H](CCN)NC(=O)[C@@H](NC(=O)[C@H](CN)NC(=O)[C@@H](NC(=O)[C@H](CCN)NC(=O)c2ccnc(-c3ccccc3Cl)c2)[C@@H](C)O)CCNC(=O)[C@H]([C@@H](C)O)NC(=O)[C@H](CCN)NC(=O)[C@H](CCN)NC1=O [Example 4] (X31-[Dab]T[Dap][Dab][Dab][dF]L[Dab][Dab]T; lactam 4-C) | 0.25 | 0.5 | 1 | 4 | 16 | 86 | 1 | 0.125 | 
CC(C)C[C@@H]1NC(=O)[C@@H](Cc2ccccc2)NC(=O)[C@H](CCN)NC(=O)[C@@H](NC(=O)[C@H](CN)NC(=O)[C@@H](NC(=O)[C@H](CCN)NC(=O)c2ccnc(-c3ccccc3F)c2)[C@@H](C)O)CCNC(=O)[C@H]([C@@H](C)O)NC(=O)[C@H](CCN)NC(=O)[C@H](CCN)NC1=O [Example 5] (X7-[Dab]T[Dap][Dab][Dab][dF]L[Dab][Dab]T; lactam 4-C) |  | 0.5 | 1 | 2 | 4 | 83 | 1 | 0.125 | 0.125
CC(C)C[C@@H]1NC(=O)[C@@H](Cc2ccccc2)NC(=O)[C@H](CCN)NC(=O)[C@@H](NC(=O)[C@H](CN)NC(=O)[C@@H](NC(=O)[C@H](CCN)NC(=O)c2ccc3ccccc3c2)[C@@H](C)O)CCNC(=O)[C@H]([C@@H](C)O)NC(=O)[C@H](CCN)NC(=O)[C@H](CCN)NC1=O [Example 6] (2Naphthoyl-[Dab]T[Dap][Dab][Dab][dF]L[Dab][Dab]T; lactam 4-C) | 0.25 | 0.5 | 2 | 4 | 16 | 51 | 2 | 0.125 | 
CC(C)C[C@@H]1NC(=O)[C@@H](Cc2ccccc2)NC(=O)[C@H](CCN)NC(=O)[C@@H](NC(=O)[C@H](CN)NC(=O)[C@@H](NC(=O)[C@H](CCN)NC(=O)c2ccnc(-c3cccc(F)c3)c2)[C@@H](C)O)CCNC(=O)[C@H]([C@@H](C)O)NC(=O)[C@H](CCN)NC(=O)[C@H](CCN)NC1=O [Example 7] (X5-[Dab]T[Dap][Dab][Dab][dF]L[Dab][Dab]T; lactam 4-C) | 0.25 | 0.5 | 1 | 2 | 8 | 41 | 1 | 0.125 | 
CC(C)C[C@@H]1NC(=O)[C@@H](Cc2ccccc2)NC(=O)[C@H](CCN)NC(=O)[C@@H](NC(=O)[C@H](CN)NC(=O)[C@@H](NC(=O)[C@H](CCN)NC(=O)c2ccc(-c3ccccc3)c(C#N)c2)[C@@H](C)O)CCNC(=O)[C@H]([C@@H](C)O)NC(=O)[C@H](CCN)NC(=O)[C@H](CCN)NC1=O [Example 8] (X32-[Dab]T[Dap][Dab][Dab][dF]L[Dab][Dab]T; lactam 4-C) | 0.25 | 1 | 1 | 2 | 4 | 32 | 1 | 0.5 | 
